Structures are written as SMILES.

In general, half-life refers to how long it takes for the measured level to halve. Read a high half-life as slow loss. By hepatocyte CLint is commonly meant the capacity of the preparation to metabolise the compound, expressed as a volume cleared per time. Higher therefore signals rapid turnover. For orientation: CLint scaled means a measure of how fast metabolising enzymes remove a compound, apart from limits set by blood flow. Low values mean slow turnover, high ones rapid turnover.

A short description of series [1]: Metabolic stability in rat hepatocytes. The series is classed as in vitro ADME. Conditions: cryopreserved hepatocytes. The procedure: Cryopreserved hepatocytes were carefully thawed in a 37 °C water bath for approximately 1 min, and transferred to a tube containing pre-warmed thawing medium. The supernatants were removed and the pellets were resuspended in KHB at a final cell density of 1 × 10^6 cells/mL, based on hemocytometer counting using trypan blue exclusion. A ETN101 solution was prepared by dissolving ETN101 in water at 4 mM and diluted by KHB at the concentration of 4 μM of ETN101. Sixty microliters each of hepatocyte suspensions and 4 μM of ETN101 were added in a 96-well plate and incubated for 0, 5, 15, 30, and 45 min at 37 °C in a CO2 incubator. All incubations were conducted in triplicates. Reactions were terminated by the addition of 120 μL of ice-cold acetonitrile and followed by vortex mixing. After centrifugation at 13,000 rpm for 8 min at 4 °C, 5 μL of internal standard (IS, camptothecin in acetonitrile at 780 ng/mL) was added to 60 μL of supernatant. A 2 μL aliquot was injected into the LC-MS/MS system. The reliability of the analysis was confirmed by incorporating three different levels of quality control samples at the beginning and end of each analytical batch. The disappearance rate (k) of ETN101 was calculated by determined peak area ratio of ETN101 to IS over incubation period. Subsequently, half-life (t1/2), intrinsic clearance (Clint), and intrinsic hepatic clearance (Clint,hep) of ETN101 in human and animal hepatocytes were calculated using the following equation [34]: t1/2(min)=ln2/−k(elimination slope) ClintμL/min/10^6 cells=ln2/t1/2×μL incubation/hepatocytes (10^6 cells) Clint,hepmL/min/kg=Clint/1000×A×10^6 cells/g liver×B g liver/kg body weight […]
For the metabolic stability assay, an LC-MS/MS system was employed, consisting of an Agilent 1260 series HPLC system (Agilent Technologies Inc., Santa Clara, CA, USA) coupled to an API 4000 mass spectrometer (AB SCIEX, Concord, Vaughan, ON, Canada) equipped with a turbo electrospray interface. […] ETN101 and IS were detected using multiple reaction monitoring (MRM) mode under positive electrospray ionization (ESI). […]

In series [2] the test system is NAT2 in human liver cytosol. In words: Human liver cytosol incubation with NAT2 inhibitor 1-aminobenzotriazole. The series is classed as in vitro ADME. The conditions noted are these: 30 min at 37 °C, M1 1 μM. The procedure:
For the chemical inhibition assay, human liver cytosol was prepared in 0.05 M potassium phosphate buffer at a concentration of 1 mg/mL prior to use. A 1 μL of M1 (final concentration: 1 μM) solution was spiked in 223 μL of human liver cytosol preparations. One microliter each of caffeic acid and 1-aminobenzotriazole were added and incubated as NAT1 and NAT2 inhibitors, respectively. The final concentrations of the NAT inhibitors were 0, 100, and 1000 μM in each incubate. After 5 min of pre-warming of the incubates at 37 °C, the metabolic reaction was initiated by adding 25 μL of acetyl-CoA regenerating system to the incubates. The samples were incubated in triplicate for 0 min or 30 min at 37 °C. The reaction was stopped by adding 250 μL of ice-cold acetonitrile containing the IS (camptothecin, 500 ng/mL) and vortex-mixing. Following centrifugation at 13,000 rpm for 5 min at 4 °C, a 2 μL aliquot of the supernatant was injected into the LC-MS/MS system. The percentage of remaining M1 and the formation of M2 were evaluated to determine the involvement of the NAT isozyme in N-acetylation of M1.
For enzyme characterization, an Agilent 6460 triple quadrupole mass spectrometer coupled with a 1260 HPLC system (Agilent Technologies, Santa Clara, CA, USA) and a Kinetex Halo® C18 column (2.7 μm, 2.1 × 50 mm, Advanced Material Technology, Wilmington, DE, USA) were used for chromatographic separation. The mobile phases comprised 0.1% (v/v) formic acid in water (mobile phase A) and 0.1% formic acid (v/v) in acetonitrile (mobile phase B). The mobile phase flowed at a rate of 0.3 mL/min, and the gradient elution program proceeded as follows: starting with 10% B for 0.5 min, a linear increase to 90% B for 0.2 min, maintaining 90% B for 1.5 min, and then returning to initial conditions for 0.2 min. Subsequently, the column was reconditioned using 10% B for 2.6 min. The column and auto-sampler were maintained at 40 °C and 4 °C, respectively. ETN101, M1, and M2 were detected via MRM using ESI in the positive mode. […]

Take `NCC(N)C(=O)Nc1ccc(-c2nc3ccccc3s2)cc1` (stereo not drawn) [ETN101, 2,3-diamino-N-(4-(benzo[d]thiazol-2-yl)phenyl)propanamide]: in series [1] (45 min incubation at 37 °C), the half-life at 2 µM was 1.15 h and the hepatocyte CLint at 2 µM was 20.1 µL/min/1e6 cells. The CLint scaled at 2 µM in series [1] (scaled from Clint) came out at 94.1 mL/min/kg.
Regarding `Nc1ccc(-c2nc3ccccc3s2)cc1` [M1, 2-(4-aminophenyl)benzothiazole], the “Percentage remaining of M1” value in series [2] (1-aminobenzotriazole 0 μM) was found to be 86.7%; in series [2] (1-aminobenzotriazole 100 μM), 89.4%; in series [2] (1-aminobenzotriazole 1000 μM), 90.9%.

Values taken from article PMC11356571, “The Comparative Metabolism of a Novel Hepatocellular Carcinoma Therapeutic Agent, 2,3-Diamino-N-(4-(benzo[d]thiazol-2-yl)phenyl)propanamide, in Human and Animal Hepatocytes” (Metabolites, 2024).
